Data published in patent publication US20080214619A1, “Business method to treat and/or prevent a gastric acid disorder with a proton pump inhibitor (PPI) and a cholinergic agonist to induce rapid onset of PPI action with or without food” (priority 2006, published 2008).

Tested on: acid secretion
Experiment: Animal study, PPI + cholinergic stimulation: gastric acid output by titration of 30-min gastric collections in fasted, anesthetized, pylorus-ligated rats
Format: in vivo
Description: Rats are fasted overnight.
Rats are anesthetized and small laparotomy and gastrotomy are performed.
Tygon tubing placed through gastrotomy and into proximal duodenum; pylorus ligated
Tubing is placed through a small gastrotomy into the most dependent portion of the stomach; esophagogastric junction is ligated carefully to avoid vagal damage and to prevent aspiration
Gastrotomy and abdomen is closed around tubing
Stomach is gently rinsed with about 0.9% NaCl at about pH 7.
Gastric contents are collected by gravity for about 30 min, at which time is rinsed with about 5 ml of NaCl and collected; 30-min contents is titrated with about […] using radiometer automatic titrator to determine basal acid output (“BAO”)
Rats (3 per group) are randomized to 1 of 3 treatments: • A. Control—intraduodenal (ID) HCO3; • B. Carbachol about 15 μg/kg IP+ID HCO3; and • C. ID omeprazole (about 20 mg/kg) is dissolved in HCO3+carbachol about 15 μg/kg IP
Gastric contents are collected by gravity for about 30 min, at which time stomachs are rinsed with about 5 ml of NaCl and collected; contents are titrated with 0.01 M NaOH using a Radiometer pH meter; about 30-min collection is repeated ×6.

SMILES: C[N+](C)(C)CCOC(N)=O [carbachol]
- effect on acid secretion (carbachol about 15 μg/kg IP + ID HCO3, 3 per group): rapidly stimulates acid secretion
- time at which acid secretion reaches a maximum level following administration (carbachol about 15 μg/kg IP + ID HCO3, gradually diminishes thereafter): about 90 min
